Laboratory results: patent US10493061B2, “Compositions and methods comprising 2-(acylamino)imidazoles” (priority 2014, dated 2019)
In brackets after ≈: the same amount, converted by molar mass. Several values for one entry are separate records, joined by “and”; a condition that tells them apart may be missing. Equal values may be shown once. Read-outs that look alike come from different tables or passages of the source.

Assays:
[1] = in vivo, mouse models (Ireland et al.); cited from earlier work
[2] = system: CEM-TART cells; test: Cytotoxicity in CEM-TART cells; assay type: cell-based
[3] = system: Candida albicans; test: MIC determination in 96-well plates; assay type: cell-based, Candida albicans (ATCC 90028); conditions: read-out: MIC100
[4] = ITC binding of naamidine A to ZnCl2; conditions: ITC with significant amounts of MeOH; reasonable approximation
Text: While this is believed to be a reasonable approximation of this binding, these ITC experiments were convoluted by solubility issues of the different species, requiring significant amounts of MeOH which can affect the accuracy of ITC experiments. Fisicaro et al. Thermochim. Acta 2014, 586 (0), 40-44. With a Zn^2+ binding affinity in the high nanomolar range, NA's phenotypic activity is likely a result of both kinase modulation and zinc binding.

[5] = system: Mycobacterium tuberculosis; test: microbe, parasite or virus in culture; conditions: read-out: IC50 (anti-proliferative activity)
Procedure: (§1) Library screening and MIC determination for the compounds were performed in 96-well plates as described previously in Koch et al. Planta Med 2009; 75(12): 1326-1330. Different media were used for respective test organisms. […] Mycobacterium tuberculosis H37Ra (ATCC 25177) was grown in 7H9 medium with ADC supplement (Remel, Lenexa, Kans.). Final well volume was 200 μL. […] The remaining wells received 1 μL of test compound in DMSO, in triplicates for MIC determination. Incubation was overnight at 37° C. for other organisms except for M. tuberculosis which was incubated for 5 days. B. subtilis and M. tuberculosis received 11 μL of sterile 5 mg/mL 3-(4,5-dimethylthiazol-2-yl)-2,5-diphenyltetrazolium bromide (MTT) in PBS on day 1 or 4, respectively. Formazan precipitate was dissolved with 50 μL solubilization reagent (50% DMF, 5% SDS, 45% water). Plates were evaluated on a Muliskan FC plate reader (Fisher Scientific, Waltham, Mass.).

[6] = system: A. baumanii; test: MIC determination in 96-well plates; assay type: cell-based, Acinetobacter baumannii (ATCC 19606); conditions: Acinetobacter baumannii; read-out: MIC100
[7] = Zn^2+ binding, (ZNA)2Zn dimer formation (MeOH precipitation, X-ray, NMR)
Text: The structure of the solid product was confirmed by X-ray crystallography (FIG. 14B). […] HCl in D2O protonates the ligand off the metal center, as evidenced by the disappearance of the diastereotopic benzyllic AB quartet in the dimer and its appearance as a singlet in the monomer. […] Of the analogues evaluated, those with more electron-donating groups at C5 or on the N^2-carbonyl seem to improve activity.

[8] = system: MCF-7s; test: Cell viability of MCF-7 cells treated with ZNA and ZNA analogues; assay type: cell-based, human; conditions: ZNA analogues and metabolite; assay not further specified
Text: Of the analogues evaluated, those with more electron-donating groups at C5 or on the N^2-carbonyl seem to improve activity.

[9] = in vivo; design: species or system Sprague-Dawley rats; conditions: female, Sprague-Dawley, rat
Procedure: ZNA has promising pkpd parameters. An initial pharmacokinetic (PK) analysis on ZNA was performed at 1 mg/kg IV, 5 mg/kg PO. ZNA was dosed to female Sprague-Dawley rats at either 1 mg/kg intravenously or at 5 mg/kg orally. Plasma was collected with K2EDTA and stored at −80° C. until analysis. Quantification of ZNA was performed by protein precipitation followed by ultra-high performance liquid chromatography (UHPLC) interfaced to an electrospray ionization quadrapole time-of-flight mass spectrometer (ESI-QTOF). Plasma concentrations were determined from a calibration curve using […]. The values determined were fit with Phoenix WinNonlin and pharmacokinetic values reported.
The plasma concentrations for ZNA were very low, and most samples fell below the lower limit of quantification for the assay (10.0 ng/mL). This limited the data available for fitting in WinNonlin. To increase the amount of data for fitting, values from below the curve were extrapolated to approximately 40% of the LLOQ and were used for PK fitting. The percent of the area extrapolated in the PO PK animals ranged from 34-70% which was considered quite high. […] The oral bioavailability determined was approximately 6%. This value is considered a rough estimate based upon the area extrapolated and the unusually high clearance determined. […] Possible explanations for the high clearance are binding of compound to red blood cells, extremely rapid clearance that requires collection of earlier time points to establish a more accurate CO, and extrahepatic elimination.

[10] = system: Mycobacterium tuberculosis; conditions: read-out: IC50 (anti-proliferative activity); MTT assay
Procedure: as §1

COc1ccc(Cc2nc(NC3=NC(=O)N(C)C3=O)n(C)c2Cc2ccc(O)cc2)cc1 [Naamidine A]
maximum tolerated dose [1]: 25 mg/kg | selectivity ratio ([2]; CEM-TART IC50 relative to M. tuberculosis IC50): 37 | IC50 ([2]; CEM-TART cells): 34.8 µM | MIC [3]: 0.78 µM (≈ 0.338 µg/mL) | Kd [4]: ~0.35 µM | IC50 [5]: 940 nM and 0.41 µg/mL | MIC [6]: 79 µM (≈ 34.2 µg/mL)

COc1ccc(-c2c(Cc3ccccc3)nc(N(C)C(=O)c3ccccc3F)n2C)cc1 [ZNA-17, N-(4-Benzyl-5-(4-methoxyphenyl)-1-methyl-1H-imidazol-2-yl)-2-fluoro-N-methylbenzamide]
Zn^2+ binding [7]: incapable of binding Zn^2+ | activity [8]: not active

Cn1c(-c2ccc(O)cc2)c(Cc2ccccc2)[nH]/c1=N\C(=O)c1ccccc1F [ZNA-18, (E)-N-(4-Benzyl-5-(4-hydroxyphenyl)-1-methyl-1H-imidazol-2(3H)-ylidene)-2-fluorobenzamide]
ratio of major circulating metabolite to ZNA [9]: 1:1 | activity [8]: active

COc1ccc(-c2c3cc(OC)c(OC)cc3cc3c2nc(N)n3C)cc1 [kealiinine B, Kealiinine B]
IC50 [10]: 8.9 µM

COc1ccc(-c2c3nc(N)n(C)c3cc3cc(OC)c(OC)c(OC)c23)cc1 [kealiinine C, Kealiinine C]
IC50 [10]: 42 µM
